US8357654B2, “Multimeric CD40 ligands, method for preparing same and use thereof for preparing drugs” (Centre National de la Recherche Scientifique, priority 2004, dated 2013)
Non-standard residues stand in square brackets, D forms with d. Residues, ends and D or L forms follow the SMILES beside them. Groups on a side chain read outwards from the residue. No end group written: not given here. *: point of attachment. Biotin = O=C1N[C@H]2[C@H](CS[C@H]2CCCCC(=O)*)N1; Ahx = NCCCCCC(=O)O

Columns and labels:
[1] = system: BL41 Burkitt's lymphoma cells (CD40+); experiment: Apoptosis of BL41 Burkitt's lymphoma cells, flow cytometry after DiOC6 labelling; assay type: cell-based; conditions: 16 hours
Experimental: (§1) The agonist effect of the ligands was tested by means of a simple biological test which is based on the property of certain B lymphomas of entering into apoptosis during the bridging of their membranous CD40 molecule (Tong et al., 1999). In fact, these B lymphomas enter into apoptosis during the bridging of their CD40 molecule by an anti-CD40 antibody or by soluble CD40L. The agonist ligands of CD40 will similarly induce an increase in the apoptosis of Burkitt's lymphoma cells which is measured by a precise analysis with flow cytometry.
(§2) BL41 Burkitt's or Raji (ATCC CCL-86) lymphoma cells (5.10^5/mL) two similar cell lines, are cultured in the presence of the different ligands at the desired concentrations. After 16 hours, the cells are labelled with 3,3′-dihexyloxacarbocyanine iodide (DiOC6) at 40 nM (Petit et al., 1995) in order to evaluate the percentage of apoptotic cells using flow cytometry.

[2] = target: T1, CD40-CD40L interaction (human CD40 muIg fusion protein, human CD154 muCD8 fusion protein) (Homo sapiens, UniProt P25942); experiment: BIAcore inhibition of the CD40-CD40L interaction; assay type: binding; conditions: ligand at 1 μM, CD40L at 35 nM
T1 construct: purchased ANCELL Corporation
T1 sequence (P25942 21-193 limits assumed): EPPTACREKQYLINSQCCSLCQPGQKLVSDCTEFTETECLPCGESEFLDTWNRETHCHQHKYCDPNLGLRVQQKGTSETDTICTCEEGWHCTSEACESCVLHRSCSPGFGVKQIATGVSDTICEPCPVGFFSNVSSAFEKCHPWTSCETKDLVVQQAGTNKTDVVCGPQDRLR
Text: (§3) The BIAcore 3000 is a device which allows the study of the interactions between two molecules. Based on surface plasmon resonance, it makes it possible to carry out measurements in real time and thus to follow the interaction kinetics (association and dissociation) of an “analyte” (which is found in an injected solution) with a “ligand” (immobilized on a microchip supporting the measurement). Kinetic measurements at different concentrations of analyte make it possible to calculate the affinity constants of the interaction between the ligand and the analyte. The microchip contains four cells with different measurements, which makes it possible to directly compare a reference cell on which a non-pertinent protein (a protein which has no affinity for the analyte studied but close to the ligand) is immobilized, with the cell on which the ligand is immobilized.
(§4) The test is carried out in two stages: measurement of the direct interaction of the ligands with the CD40 immobilized on the microchip and measurement of the inhibition of the CD40-CD40L interaction by the ligands.
(§5) Rabbit antibodies directed against the constant part of mouse immunoglobulins were immobilized on a microchip. […]
In order to regenerate the cells (i.e. to remove all the proteins adsorbed in non-covalent manner), a 10 mM HCl solution is injected at 5 μL/min over 1 minute. The cells are then ready for a new analysis.

[3] = target: T2, recombinant CD40 (human CD40 muIg fusion protein) (Homo sapiens, UniProt P25942); experiment: BIAcore direct interaction of the ligands with immobilized CD40; assay type: binding; conditions: BIAcore 3000, kinetics of direct association to immobilized CD40, 30 μL/min over 4 minutes; read-out: dissociation constant
T2 construct: purchased ANCELL Corporation, Bayport, Minn
T2 sequence (P25942 21-193 limits assumed): as above
Text: as §3, §4, §5
In order to regenerate the cells (i.e. to remove all the proteins adsorbed in a non-covalent manner), a 50 mM HCl solution is injected at 5 μL/min over 1 minute. The cells are then ready for a new analysis.

[4] = system: Raji (ATCC CCL-86) lymphoma cells (CD40+); experiment: Apoptosis of Raji lymphoma cells, flow cytometry after DiOC6 labelling; assay type: cell-based
Experimental: as §1, §2

`C[C@H]1NC(=O)[C@H](CCCCNC(=O)CCCCCNC(=O)[C@H](Cc2ccc(O)cc2)NC(=O)[C@H](Cc2ccc(O)cc2)NC(=O)CNC(=O)[C@@H](N)CCCCN)NC(=O)[C@@H](C)NC(=O)[C@H](CCCCNC(=O)CCCCCNC(=O)[C@H](Cc2ccc(O)cc2)NC(=O)[C@H](Cc2ccc(O)cc2)NC(=O)CNC(=O)[C@@H](N)CCCCN)NC(=O)[C@@H](C)NC(=O)[C@H](CCCCNC(=O)CCCCCNC(=O)[C@H](Cc2ccc(O)cc2)NC(=O)[C@H](Cc2ccc(O)cc2)NC(=O)CNC(=O)[C@@H](N)CCCCN)NC1=O` [L4] (cyclo(K([Ahx-Tyr-Tyr-Gly-Lys])[dA]K([Ahx-Tyr-Tyr-Gly-Lys])[dA]K([Ahx-Tyr-Tyr-Gly-Lys])[dA])) showed a specific apoptosis ([1]; ligand at 12.5 μM, DiOC6 flow cytometry (FIG. 5C)) of 24%.
`C[C@H]1NC(=O)[C@H](CCCCNC(=O)CCCCCNC(=O)[C@H](Cc2ccc(O)cc2)NC(=O)[C@H](Cc2ccc(O)cc2)NC(=O)[C@H]2CCCN2C(=O)[C@@H](N)CCCCN)NC(=O)[C@@H](C)NC(=O)[C@H](CCCCNC(=O)CCCCCNC(=O)[C@H](Cc2ccc(O)cc2)NC(=O)[C@H](Cc2ccc(O)cc2)NC(=O)[C@H]2CCCN2C(=O)[C@@H](N)CCCCN)NC(=O)[C@@H](C)NC(=O)[C@H](CCCCNC(=O)CCCCCNC(=O)[C@H](Cc2ccc(O)cc2)NC(=O)[C@H](Cc2ccc(O)cc2)NC(=O)[C@H]2CCCN2C(=O)[C@@H](N)CCCCN)NC1=O` [L40] (cyclo(K([Ahx-Tyr-Tyr-dP-Lys])[dA]K([Ahx-Tyr-Tyr-dP-Lys])[dA]K([Ahx-Tyr-Tyr-dP-Lys])[dA])) was tested, and the “inhibition of the binding of CD40L to CD40” value [2] was 100%.
`C[C@H]1NC(=O)[C@H](CCCCNC(=O)CCCCCNC(=O)[C@H](Cc2ccc(O)cc2)NC(=O)[C@H](Cc2ccc(O)cc2)NC(=O)CNC(=O)[C@@H](N)CCCCN)NC(=O)[C@@H](CCCCNC(=O)CCCC[C@@H]2SC[C@@H]3NC(=O)N[C@@H]32)NC(=O)[C@H](CCCCNC(=O)CCCCCNC(=O)[C@H](Cc2ccc(O)cc2)NC(=O)[C@H](Cc2ccc(O)cc2)NC(=O)CNC(=O)[C@@H](N)CCCCN)NC(=O)[C@@H](C)NC(=O)[C@H](CCCCNC(=O)CCCCCNC(=O)[C@H](Cc2ccc(O)cc2)NC(=O)[C@H](Cc2ccc(O)cc2)NC(=O)CNC(=O)[C@@H](N)CCCCN)NC1=O` [L41] (cyclo(K([Ahx-Tyr-Tyr-Gly-Lys])[dA]K([Ahx-Tyr-Tyr-Gly-Lys])[dA]K([Ahx-Tyr-Tyr-Gly-Lys])[dK](Biotin))) was tested, and the Kd [3] was 28 nM.
For “H-Lys-Pro-Tyr-Tyr-Ahx-OH (H-KPYY[Ahx]-OH; SMILES NCCCC[C@H](N)C(=O)N1CCC[C@H]1C(=O)N[C@@H](Cc1ccc(O)cc1)C(=O)N[C@@H](Cc1ccc(O)cc1)C(=O)NCCCCCC(=O)O) [L45, control peptide in which D-Proline is replaced by L-Proline]”, the “biological activity (induction of apoptosis), in words” value ([1]; dose-response (FIG. 5B, 5C)) was “no activity”.
In the case of “L43: compound of formula (III-a) in which Rc is Ahx-(D)Pro-Tyr-Tyr-NH—(CH2)5—CO— (peptide [Ahx][dP]YY[Ahx]; chain K[dA]K[dA]K[dA]; also: three copies of chain 1 amide-linked via C-terminal Ahx to the three Lys side-chain amines of the ring (chain 2), head-to-tail to a chain's N/C-terminus)”, the “effectiveness in inducing apoptosis, in words” value ([4]; Raji cells, 16 hours, dose-response (FIG. 5D)) is reported as “less effective than its homologue L4” and the “inhibition of the binding of CD40L to CD40” value [2] is reported as 30%.
With “L62: compound of formula (III-a) in which Rc is H-Lys-ψ(CH2N)-(D)Pro-Tyr-Tyr-NH—(CH2)5—CO— (peptide H-K[dP]YY[Ahx]; chain K[dA]K[dA]K[dA]; also: reduced bond psi(CH2N) between Lys1 and D-Pro2 of chain 1, three copies of chain 1 amide-linked via C-terminal Ahx to the three Lys side-chain amines of the ring (chain 2), head-to-tail to a chain's N/C-terminus)” the “effectiveness and selectivity of apoptosis induction, in words” value ([4]; Raji and BL41 (CD40+) versus Jurkat (CD40−) cells, 16 hours (FIGS. 8A, 8B)) was “effective and selective ligand”.
